Reference: PMC11219945, “Assessing genotoxic effects of chemotherapy agents by a robust in vitro assay based on mass spectrometric quantification of γ-H2AX in HepG2 cells” (Frontiers in Pharmacology, 2024)
Counter-ions that a name gives are not always drawn.

What was measured:
γ-H2AX in HepG2 cells [1] = experiment: γ-H2AX MS assay, dose-effect relationship in HepG2 cells; conditions: for Genotoxicity in γ-H2AX MS assay: tested concentration 1 mM
Description: Human hepatoblastoma cells (HepG2) were cultivated in DMEM medium under standard conditions (37°C in a 5% CO2 atmosphere). The culturing medium was added with 10% FBS, 100 U/mL penicillin and 100 μg/mL streptomycin.
In accordance to our previous study, cells were exposed to the chemotherapeutic agent by adding a proper volume of chemotherapeutic agent stock solution to the fresh medium without serum. Controls were treated with DMSO (0.1%) in medium. Independent biological experiments with three technical replicates were conducted.
The cells were then treated with different chemotherapy agents in serum-free medium. For a dose-effect relationship experiment, cells were exposed to each agent at either of three concentrations with a 10-fold increase for 24 h. For the time-effect relationship experiment of nine tested chemotherapy agents, cells were exposed to selected chemotherapy agents at 0.5, 1, 2, 4, 8, 12, and 24 h, with the concentration of 100 μM. Independent biological experiments with three technical replicates were performed.
(§1) The quantification of γ-H2AX was carried out according to the previous report ([Qu et al., 2021]). In short, the cell clumps were collected after a certain period of cell culture and histones were obtained by acid extraction. After nuclear isolation, histone extraction, trypsin digestion in the solution, and desalting, the peptide sample from the carboxy terminus of H2AX was analyzed. LC–MS/MS analysis was conducted using a QTRAP 5500 (AB Sciex, Framingham, United States) with an ACQUITY UPLC system (Waters Co., Manchester, United Kingdom). Chromatographic separation was carried out with an ACQUITY UPLC BEH C18 column (100 mm × 2.1 mm, 1.7 μm). The column temperature was maintained at 40°C. A 10 μL sample aliquot was injected for analysis. Mobile phases A and B were 0.1% FA in distilled H2O and acetonitrile, respectively. […] The eluent composition was maintained for 2 min, after which the system returned to 1% B and was re-equilibrated for 2 min. The eluates in the first 1 min were switched to waste to prevent contaminating the ion source. The electrospray ionization source was operated in positive mode using nitrogen as the nebulizing gas. All experiments were performed independently in at least triplicate.
To this end, we firstly examined the cytotoxicity of 34 chemotherapy agents, all of which were already well classified in terms of diverse characteristics. These tested chemotherapy agents were serially diluted for exposure to check the effects on cell viability.

[2] = combination of in vitro mouse lymphoma, chromosomal aberration, and micronucleus tests; cited from earlier work
γ-H2AX in HepG2 cells [3] = experiment: γ-H2AX time-effect relationship / DNA repair kinetics (k, t50) in HepG2 cells; assay type: cell-based, Human; set-up: k (speed of γ-H2AX descending): unit not given here; conditions: 100 μM, 0.5–8 h time-dependent kinetics
Description: The cells were then treated with different chemotherapy agents in serum-free medium. […] Independent biological experiments with three technical replicates were performed.
as §1, with “In” for “The quantification of γ-H2AX was carried out according to the previous report ([Qu et al., 2021]). In”
Here, we estimated k and t50 after exposure to nine representative chemotherapy agents based on the 0.5–8 h γ-H2AX time-dependent kinetics (Figure 5) and then obtained these parameters to describe each agent DSB repair capacity using the functions optim and optimize in R language.

SMILES | maximum γ-H2AX value within the selected concentration range (γ-H2AX in HepG2 cells [1]; human, 24 h) | In vitro assays (genotoxicity) [2] | also measured
O=c1[nH]cc(F)c(=O)[nH]1 [5-fluorouracil] | 5.2 | + | 
Sc1ncnc2nc[nH]c12 [6-mercaptopurine] | 5.82 | + | 
CCC1(c2ccc(N)cc2)CCC(=O)NC1=O (centres unmarked) [Aminoglutethimide] | 2.9 | − | 
CC(C)(C#N)c1cc(Cn2cncn2)cc(C(C)(C)C#N)c1 [Anastrozole] |  | − | 
N.N.O=C([O-])C1(C(=O)[O-])CCC1.[Pt+2] [Carboplatin] |  | + | maximum γ-H2AX value within the selected concentration range (γ-H2AX in HepG2 cells [1]; HepG2 cells, 24 h): 7.2; γ-H2AX MEC/MS (minimum effective concentration) (γ-H2AX in HepG2 cells [1]; HepG2 cells, 24 h exposure): ↑(100) µM; γ-H2AX MEC/MS (minimum effective concentration) (γ-H2AX in HepG2 cells [1]; HepG2 cells, 24 h exposure, listed as carboplatin): 100 µM
CCCCCCNC(=O)n1cc(F)c(=O)[nH]c1=O [Carmofur] | 6.3 | + | 
O=NN(CCCl)C(=O)NCCCl [Carmustine] |  |  | γ-H2AX MEC/MS (minimum effective concentration) (γ-H2AX in HepG2 cells [1]; HepG2 cells, 24 h exposure): ↑(0.01) µM; γ-H2AX MEC/MS (minimum effective concentration) (γ-H2AX in HepG2 cells [1]; HepG2 cells, 24 h exposure, listed as carmustine): 0.01 µM; k (speed of γ-H2AX descending) (γ-H2AX in HepG2 cells [3]): 0.169; t50 (time required for γ-H2AX to drop to half of the maximum value) (γ-H2AX in HepG2 cells [3]): 2.298 h
O=P1(N(CCCl)CCCl)NCCCO1 (centres unmarked) [Cyclophosphamide] |  | + | maximum γ-H2AX value within the selected concentration range (γ-H2AX in HepG2 cells [1]; HepG2 cells, 24 h): 7.4; Genotoxicity in γ-H2AX MS assay (γ-H2AX in HepG2 cells [1]; HepG2 cells, 24 h): genotoxic; γ-H2AX MEC/MS (minimum effective concentration) (γ-H2AX in HepG2 cells [1]; HepG2 cells, 24 h exposure): ↑(1000) µM
CN(C)/N=N/c1[nH]cnc1C(N)=O [Dacarbazine] | 5.8 | + | 
COc1cccc2c1C(=O)c1c(O)c3c(c(O)c1C2=O)C[C@@](O)(C(=O)CO)C[C@@H]3O[C@H]1C[C@H](N)[C@@H](O)[C@H](C)O1 [Epirubicin hydrochloride] | 18 | + | γ-H2AX MEC/MS (minimum effective concentration) (γ-H2AX in HepG2 cells [1]; human, 24 h): 0.01 µM
COc1cc([C@@H]2c3cc4c(cc3[C@@H](O[C@@H]3O[C@@H]5CO[C@@H](C)O[C@H]5[C@H](O)[C@H]3O)[C@H]3COC(=O)[C@H]23)OCO4)cc(OC)c1O [Etoposide] |  | + | 
CC[C@@]1(O)C(=O)OCc2c1cc1n(c2=O)Cc2c-1nc1cc(F)c(C)c3c1c2[C@@H](N)CC3 [Exatecan] | 19.2 | + | k (speed of γ-H2AX descending) (γ-H2AX in HepG2 cells [3]): 0.114; t50 (time required for γ-H2AX to drop to half of the maximum value) (γ-H2AX in HepG2 cells [3]): 3.925 h
C=C1C[C@@H]2[C@H](CC[C@]3(C)C(=O)CC[C@@H]23)[C@@]2(C)C=CC(=O)C=C12 [Exemestane] | 3.1 | − | 
C[C@]12CCC(=O)C(O)=C1CC[C@@H]1[C@@H]2CC[C@]2(C)C(=O)CC[C@@H]12 [Formestane] |  | − | maximum γ-H2AX value within the selected concentration range (γ-H2AX in HepG2 cells [1]; HepG2 cells, 24 h): 3.2; Genotoxicity in γ-H2AX MS assay (γ-H2AX in HepG2 cells [1]; HepG2 cells, 24 h): none of the selected antitumor hormones exhibited genotoxicity
NC(=O)NO [Hydroxyurea] |  | + | MEC in γ-H2AX MS assay (γ-H2AX in HepG2 cells [1]): 1 mM
